Measured values published in patent publication US8394773B2, “Use of an alkyl glycoside or of a mixture of alkyl glycosides having anti-ageing and/or calming properties as active agents in cosmetic compositions, and methods of cosmetic care using said compositions” (LVMH Recherche, priority 2008, dated 2013).

Columns and labels:
Il-8 = test: Quantification of the release of Il-8 into culture supernatants of HaCaT keratinocytes stimulated with Il-1 beta (ELISA, related to total proteins); format: cell-based, human; conditions: for Inhibitory activity (%) (release of Il-8) / Liberation Il-8 (%) / pg IL8/mg prot: alkyl glycoside alone at 1 μM, 24 hours; for Inhibitory activity (%) (release of Il-8) / Liberation Il-8 (%): HaCaT + Il-1 beta; for Liberation Il-8 (%): control (-) = 100; for pg IL8/mg prot: HaCaT stimulated with Il-1 beta 25 ng/ml; for anti-Il-8 activity, in words: compounds tested alone, 1 μM
Protocol: (§1) The release of the Il-8 and PGE2 markers into cell line culture supernatants of immortalized keratinocytes (HaCaT), stimulated for 24 hours in the presence of oligosaccharides is quantified.
(§2) HaCaTs are cultured to 80% confluence.
(§3) A treatment is carried out over 24 hours with the product to be evaluated with, in the case of Il-8 alone, a parallel stimulation with interleukin-1.
(§4) The culture supernatants containing the markers are collected and stored at −20° C. up to the day of the assay.
(§5) The assay is carried out with the aid of a kit specific for each of the markers.
The assay of human Il-8 by means of the ELISA AbC204/3 kit (Abcys).
(§6) These HaCaTs are inoculated at the rate of 10 000 cells/well (supplemented KSFM culture medium, Gibco) in a 96-well microplate.
(§7) The plate is placed in an incubator (37° C. and 5% CO2) for 24 hours.
(§8) The oligosaccharides, initially in the form of a 1 mM stock solution in DMSO, are exposed to the cells after suitable dilution in culture medium.
In parallel, for Il-8, the cells are stimulated with Il-1 beta at 25 ng/ml.
A column is treated with cholecalciferol (vitamin D3) at 0.39 μg/ml and stimulated with Il-1 beta, as positive control inhibiting the release of Il-8.
A control column is not treated and stimulated with Il-1 beta.
(§9) Each concentration of product, the positive control and the control without treatment, are evaluated on 4 or 6 wells of HaCaT.
(§10) After 24 hours of treatment, the culture supernatants are collected and stored at −20° C.
(§11) The assay is carried out according to the protocol described in each of the kits, by an immunoenzymatic test which makes it possible to assay, by spectrophotometric measurement at 450 nm, the respective quantities of Il-8 and of PGE2 present in the supernatants.
(§12) The absorbance (OD) values obtained for the 2-fold dilution series for IL-8 standard and PGE2 standard (7 concentrations, in duplicate) are plotted on a logarithmic graph.
(§13) The known concentrations of IL-8 and PGE2, expressed in pg/ml, are plotted on the x-axis and the absorbance values on the y-axis, in order to obtain a straight line.
(§14) The absorbance values measured for each sample are in turn plotted on the graph, in order to determine the respective IL-8 and PGE2 concentrations, expressed in pg/ml.
(§15) The assay (in mg/ml) of the total proteins present in the cellular pellets, after treatment or non-treatment of the HaCaTs, makes it possible to relate the assay of IL-8 and of PGE2 to the quantity of proteins in each well of cells, expressed in picograms (pg) of markers per milligram (mg) of proteins.
(§16) The absorbance values for the 6 wells are converted to mg of proteins per well of HaCaT by means of the straight line obtained by the calibration series (quantity of proteins known for an absorbance determined at 570 nm).
(§17) Finally, for each well and each treatment condition, a quantitative assay of the release of Il-8 and of PGE2 is obtained, in pg/ml.
This assay is related to a quantity of proteins, expressed in mg/ml. The final quantitative result for Il-8 is therefore expressed in pg/mg of proteins.
The percentage inhibition of the production of IL-8 is calculated as follows: […]
The test is carried out at a concentration of alkyl glycosides equal to 1 μM, after dilution in the culture medium, the negative control is pure DMSO.

PGE2 = test: Quantification of the release of PGE2 into culture supernatants of HaCaT keratinocytes (immunoenzymatic kit, related to total proteins); format: cell-based; conditions: for Inhibitory activity (%) (release of PGE2) / pg PGE2/mg prot / Liberation PGE2 (%): alkyl glycoside alone at 1 μM, 24 hours, HaCaT; for Liberation PGE2 (%): control (-) = 100
Protocol: PGE2 is an important marker of inflammatory response linked to tissue damage. It is produced by a wide variety of cells including monocytes, macrophages or keratinocytes.
as §1, §2, §3, §4, §5
Assay of PGE2 by means of the Parameter PGE2 kit (R&D system).
as §6, §7, §8
A column is treated with indomethacin as positive control inhibiting the release of PGE2.
as §9, §10, §11, §12, §13, §14, §15, §16, §17
The test is carried out at a concentration of alkyl glycosides equal to 1 μM, after dilution in the culture medium.

CCCCCCCCO[C@@H]1O[C@H](CO)[C@@H](O)[C@H](O)[C@H]1O [DP1-8, n-Octyl-beta-D-glucopyranoside, reference compound]
Inhibitory activity (%) (release of Il-8) (Il-8): 9.1%
Liberation Il-8 (%) (Il-8): 91.0%
pg IL8/mg prot (Il-8): 1121.6 pg/mg prot
Inhibitory activity (%) (release of PGE2) (PGE2): 0.3%
pg PGE2/mg prot (PGE2): 312.8 pg/mg prot
Liberation PGE2 (%) (PGE2): 99.7%

CCCCCCCCCCCCO[C@@H]1O[C@H](CO)[C@@H](O)[C@H](O)[C@H]1O [DP1-12, n-dodecyl-beta-D-glucopyranoside, reference compound]
Inhibitory activity (%) (release of Il-8) (Il-8): 24.6%
Liberation Il-8 (%) (Il-8): 75.4%
pg IL8/mg prot (Il-8): 930.3 pg/mg prot
Inhibitory activity (%) (release of PGE2) (PGE2): 52.2%
pg PGE2/mg prot (PGE2): 150.0 pg/mg prot
Liberation PGE2 (%) (PGE2): 47.8%

CO[C@@H]1O[C@H](CO)[C@@H](O[C@H]2O[C@H](CO)[C@@H](O)[C@H](O)[C@H]2O)[C@H](O)[C@H]1O [DP2-1, methyl beta-D-maltoside]
Inhibitory activity (%) (release of Il-8) (Il-8): 59.6%
Liberation Il-8 (%) (Il-8): 40.4%
pg IL8/mg prot (Il-8): 497.7 pg/mg prot
Inhibitory activity (%) (release of PGE2) (PGE2): 58.2%
pg PGE2/mg prot (PGE2): 131.3 pg/mg prot
Liberation PGE2 (%) (PGE2): 41.8%

CCCCCCCCO[C@@H]1O[C@H](CO)[C@@H](O[C@H]2O[C@H](CO)[C@@H](O)[C@H](O)[C@H]2O)[C@H](O)[C@H]1O [DP2-8, octyl beta-D-maltoside]
Inhibitory activity (%) (release of Il-8) (Il-8): 69.4%
Liberation Il-8 (%) (Il-8): 30.6%
pg IL8/mg prot (Il-8): 377.7 pg/mg prot
Inhibitory activity (%) (release of PGE2) (PGE2): 37.7%
pg PGE2/mg prot (PGE2): 195.5 pg/mg prot
Liberation PGE2 (%) (PGE2): 62.3%

CCCCCCCCCCCCO[C@@H]1O[C@H](CO)[C@@H](O[C@H]2O[C@H](CO)[C@@H](O)[C@H](O)[C@H]2O)[C@H](O)[C@H]1O [DP2-12, dodecyl beta-D-maltoside]
Inhibitory activity (%) (release of Il-8) (Il-8): 82.9%
Liberation Il-8 (%) (Il-8): 17.1%
pg IL8/mg prot (Il-8): 211.0 pg/mg prot
Inhibitory activity (%) (release of PGE2) (PGE2): 49.1%
pg PGE2/mg prot (PGE2): 159.8 pg/mg prot
Liberation PGE2 (%) (PGE2): 50.9%

CO[C@@H]1O[C@H](CO)[C@@H](O[C@H]2O[C@H](CO)[C@@H](O[C@H]3O[C@H](CO)[C@@H](O)[C@H](O)[C@H]3O)[C@H](O)[C@H]2O)[C@H](O)[C@H]1O [DP3-1, methyl beta-D-maltotrioside]
Inhibitory activity (%) (release of Il-8) (Il-8): 71.9%
Liberation Il-8 (%) (Il-8): 28.1%
pg IL8/mg prot (Il-8): 346.6 pg/mg prot
Inhibitory activity (%) (release of PGE2) (PGE2): 49.1%
pg PGE2/mg prot (PGE2): 159.6 pg/mg prot
Liberation PGE2 (%) (PGE2): 50.9%

CCCCCCCCCCCCO[C@@H]1O[C@H](CO)[C@@H](O[C@H]2O[C@H](CO)[C@@H](O[C@H]3O[C@H](CO)[C@@H](O)[C@H](O)[C@H]3O)[C@H](O)[C@H]2O)[C@H](O)[C@H]1O [DP3-12, dodecyl beta-D-maltotrioside]
Inhibitory activity (%) (release of Il-8) (Il-8): 20.1%
Liberation Il-8 (%) (Il-8): 79.9%
pg IL8/mg prot (Il-8): 521.5 pg/mg prot
anti-Il-8 activity, in words (Il-8): acts on both markers
anti-Il-8 activity, in words (Il-8; listed as dodecyl maltotrioside): very small effect on the release of Il-8
Inhibitory activity (%) (release of PGE2) (PGE2): 18.8%
pg PGE2/mg prot (PGE2): 171.8 pg/mg prot
Liberation PGE2 (%) (PGE2): 81.2%
PGE2 inhibiting activity, in words (PGE2; compounds tested alone, 1 μM): acts on both markers
